The text below walks through data of US20250340510A1, “Substituted Phenylbenzenesulfonamide Derivatives and Uses Thereof” (Nine Square Therapeutics Corporation, priority 2022, published 2025).

Each structure is given as a SMILES string.

Sequence of TRPML1 (Q9GZU1 17-572 limits assumed): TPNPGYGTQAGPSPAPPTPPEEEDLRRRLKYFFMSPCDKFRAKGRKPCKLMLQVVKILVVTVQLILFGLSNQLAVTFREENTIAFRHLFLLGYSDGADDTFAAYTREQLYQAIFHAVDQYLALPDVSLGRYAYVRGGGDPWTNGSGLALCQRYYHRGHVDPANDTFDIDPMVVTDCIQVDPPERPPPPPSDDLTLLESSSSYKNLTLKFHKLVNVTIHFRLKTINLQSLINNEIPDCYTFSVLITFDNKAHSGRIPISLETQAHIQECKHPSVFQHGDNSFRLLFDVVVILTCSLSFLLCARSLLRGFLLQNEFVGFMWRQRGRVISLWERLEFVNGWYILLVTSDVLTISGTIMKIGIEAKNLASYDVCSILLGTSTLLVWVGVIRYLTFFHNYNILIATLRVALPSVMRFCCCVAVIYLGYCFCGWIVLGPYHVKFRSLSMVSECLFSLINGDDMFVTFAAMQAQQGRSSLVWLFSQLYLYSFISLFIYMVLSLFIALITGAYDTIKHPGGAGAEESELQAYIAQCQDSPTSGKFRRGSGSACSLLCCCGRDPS

The assay deals with TRPML1 (Homo sapiens, UniProt Q9GZU1). In words: Calcium flux in HEK293 overexpressing TRPML1 plasma membrane variant (FLIPR, Calcium 6 dye). In kind it is cell-based. The note with it: HEK293/TRPML1-PM clone A5 cells; 4-parameter logistic fit; read-out: TRPML1 calcium flux (FLIPR) dose response: EC50. An excerpt:
Example B1. Calcium Flux in HEK293 Overexpressing TRPML1 Plasma Membrane Variant—Calcium 6 Dye
Cells: HEK293/TRPML1-PM clone A5, clonal cell line containing mutant TRPML1 (both N- and C-terminal dileucine targeting motifs deleted) that localizes to the plasma membrane
Plates: Perkin Elmer Viewplate cat. #6007460, black optically clear, tissue culture treated 384-well plate
Calcium dye: Molecular Devices FLIPR Calcium 6 Assay Kit, cat. #R8190 or Fluo-4 Direct from Thermo Fisher, cat. #F10471
Tips: Molecular Devices 384-well FLIPR Tetra black tips, cat. #9000-0764 Example B1.2 Method
HEK293/TRPML1-PM clone A5 cells were trypsinized from flasks, counted, then diluted in media to 15,000 cells per 25 μL, and seeded into a black, 384-well viewplate, and cultured overnight.
One vial of calcium 6 dye was diluted with 10 mL of assay buffer (HBSS+20 mM HEPES pH 7.4) and 25 μL of the dilution was added per well to the cells.
After incubating for 2 hours at 37° C., the plate was moved to the FLIPR in the read position.
The compounds were diluted in EMEM with 0.125% FBS to 5× concentration and loaded in a 384-well plate according to the desired plate map for the assay, including DMSO alone and carbachol controls, then the plate was moved to the FLIPR in the source 2 position.
A box of tips was placed in the source 1 position within the FLIPR to complete the assay set up.
Once the run was started, an initial baseline fluorescent measurement was performed for 10 seconds (470-495 nm excitation and 515-575 nm emission) prior to adding the compounds.
12.5 μL of 5× test compound, DMSO alone, or carbachol were added via the FLIPR and real-time fluorescence measurements were performed for an additional 170 seconds with 1 read per second.
The data was normalized to baseline by calculating maximum fluorescence minus minimum fluorescence and plotted as response (fold) over the baseline versus log ([…] concentration). The EC50 was determined using a 4-parameter logistic curve fit in Graphpad Prism 9.
`CN(c1ccc(Cl)cc1NS(=O)(=O)c1ccc(S(=O)(=O)N(C)C)cc1)C1CCCCC1` [Compound 1, N1-(5-chloro-2-(cyclohexyl(methyl)amino)phenyl)-N4,N4-dimethylbenzene-1,4-disulfonamide]: the 50% effective concentration (EC50) is 1.24 µM.
`CN(c1cc(Cl)ccc1NS(=O)(=O)c1ccc(S(=O)(=O)N(C)C)cc1)C1CCCCC1` [Compound 2, N1-(4-chloro-2-(cyclohexyl(methyl)amino)phenyl)-N4,N4-dimethylbenzene-1,4-disulfonamide]: the EC50 was determined as 3 µM.
`CN(c1cccc(F)c1NS(=O)(=O)c1ccc(S(=O)(=O)N(C)C)cc1)C1CCCCC1` [Compound 3, N1-(2-(cyclohexyl(methyl)amino)-6-fluorophenyl)-N4,N4-dimethylbenzene-1,4-disulfonamide]: the concentration for a half-maximal effect (EC50) stood at 4.76 µM.
For the compound `CN(c1cc(F)ccc1NS(=O)(=O)c1ccc(S(=O)(=O)N(C)C)cc1)C1CCCCC1` [Compound 4, N1-(2-(cyclohexyl(methyl)amino)-4-fluorophenyl)-N4,N4-dimethylbenzene-1,4-disulfonamide], the 50% effective concentration (EC50) was determined as 2.21 µM.
In the case of `CN(Cc1cnn(C2CC2)c1)c1ccccc1NS(=O)(=O)c1ccc(S(=O)(=O)N(C)C)cc1` [Compound 5, N1-(2-(((1-cyclopropyl-1H-pyrazol-4-yl)methyl)(methyl)amino)phenyl)-N4,N4-dimethylbenzene-1,4-disulfonamide], the EC50 came to 2.46 µM.
In the case of `CC(C)CN(C)c1ccccc1NS(=O)(=O)c1ccc(S(=O)(=O)N(C)C)cc1` [Compound 7, N1-(2-(isobutyl(methyl)amino)phenyl)-N4,N4-dimethylbenzene-1,4-disulfonamide], the 50% effective concentration (EC50) stood at 0.51 µM.
Turning to `CN(Cc1ccncc1)c1ccccc1NS(=O)(=O)c1ccc(S(=O)(=O)N(C)C)cc1` [Compound 8, N1,N1-dimethyl-N4-(2-(methyl(pyridin-4-ylmethyl)amino)phenyl) benzene-1,4-disulfonamide], the EC50 is 3.69 µM.
Regarding `CCN(C)c1ccccc1NS(=O)(=O)c1ccc(S(=O)(=O)N(C)C)cc1` [Compound 9, N1-(2-(ethyl(methyl)amino)phenyl)-N4,N4-dimethylbenzene-1,4-disulfonamide], the EC50 amounted to 3.46 µM.
Take `CN(CC1CCOCC1)c1ccccc1NS(=O)(=O)c1ccc(S(=O)(=O)N(C)C)cc1` [Compound 11, N1,N1-dimethyl-N4-(2-(methyl((tetrahydro-2H-pyran-4-yl)methyl)amino)phenyl)benzene-1,4-disulfonamide]: the half-maximal effective concentration (EC50) is 2.1 µM.
Consider `CN(CCN1CCOCC1)c1ccccc1NS(=O)(=O)c1ccc(S(=O)(=O)N(C)C)cc1` [Compound 15, N1,N1-dimethyl-N4-(2-(methyl(2-morpholinoethyl)amino)phenyl) benzene-1,4-disulfonamide], for which the EC50 was over 10 µM.
For `CCCN(C)c1ccccc1NS(=O)(=O)c1ccc(S(=O)(=O)N(C)C)cc1` [Compound 16, N1,N1-dimethyl-N4-(2-(methyl(propyl)amino)phenyl)benzene-1,4-disulfonamide], the EC50 stood at 2.37 µM.
As for `CN(c1ccccc1NS(=O)(=O)c1ccc(S(=O)(=O)N(C)C)cc1)C1CCOCC1` [Compound 19, N1,N1-dimethyl-N4-(2-(methyl(tetrahydro-2H-pyran-4-yl)amino)phenyl)benzene-1,4-disulfonamide], the 50% effective concentration (EC50) stood at 2.03 µM.
As to `CN1CCC(N(C)c2ccccc2NS(=O)(=O)c2ccc(S(=O)(=O)N(C)C)cc2)CC1` [Compound 21, N1,N1-dimethyl-N4-(2-(methyl(1-methylpiperidin-4-yl)amino)phenyl)benzene-1,4-disulfonamide], the EC50 is over 10 µM.
For the compound `CN(c1ccccc1NS(=O)(=O)c1ccc(S(=O)(=O)N(C)C)cc1)C1CCNCC1` [Compound 22, N1,N1-dimethyl-N4-(2-(methyl(piperidin-4-yl)amino)phenyl)benzene-1,4-disulfonamide], the EC50 was over 10 µM.
With `CN(c1ccccc1)c1ccccc1NS(=O)(=O)c1ccc(S(=O)(=O)N(C)C)cc1` [Compound 27, N1,N1-dimethyl-N4-(2-(methyl(phenyl)amino)phenyl)benzene-1,4-disulfonamide] the figure was over 10 µM.
With `CC(C)n1cnc(CN(C)c2ccccc2NS(=O)(=O)c2ccc(S(=O)(=O)N(C)C)cc2)c1` [Compound 31, N1-(2-(((1-isopropyl-1H-imidazol-4-yl)methyl)(methyl)amino)phenyl)-N4,N4-dimethylbenzene-1,4-disulfonamide] the figure was 8.98 µM; with `CN(CC1CCC(C)(C)OC1)c1ccccc1NS(=O)(=O)c1ccc(S(=O)(=O)N(C)C)cc1` (stereo not shown) [Compound 32, N1-(2-(((6,6-dimethyltetrahydro-2H-pyran-3-yl)methyl)(methyl)amino)phenyl)-N4,N4-dimethylbenzene-1,4-disulfonamide], 0.81 µM.
Regarding `COCCCCN(C)c1ccccc1NS(=O)(=O)c1ccc(S(=O)(=O)N(C)C)cc1` [Compound 33, N1-(2-((4-methoxybutyl)(methyl)amino)phenyl)-N4,N4-dimethylbenzene-1,4-disulfonamide], the 50% effective concentration (EC50) amounted to 2.74 µM.
For `COCCCN(C)c1ccccc1NS(=O)(=O)c1ccc(S(=O)(=O)N(C)C)cc1` [Compound 34, N1-(2-((3-methoxypropyl)(methyl)amino)phenyl)-N4,N4-dimethylbenzene-1,4-disulfonamide] the value was 3.2 µM; for `Cc1ccc(NS(=O)(=O)c2ccc(S(=O)(=O)N(C)C)cc2)c(N(C)C2CCCCC2)c1` [Compound 35, N1-(2-(cyclohexyl(methyl)amino)-4-methylphenyl)-N4,N4-dimethylbenzene-1,4-disulfonamide], 0.33 µM.
Regarding `Cc1cccc(N(C)C2CCCCC2)c1NS(=O)(=O)c1ccc(S(=O)(=O)N(C)C)cc1` [Compound 36, N1-(2-(cyclohexyl(methyl)amino)-6-methylphenyl)-N4,N4-dimethylbenzene-1,4-disulfonamide], the EC50 stood at 2.18 µM.
Regarding `CN(c1ccccc1NS(=O)(=O)c1ccc(S(=O)(=O)N(C)C)cc1)C1CCC1` [Compound 37, N1-(2-(cyclobutyl(methyl)amino)phenyl)-N4,N4-dimethylbenzene-1,4-disulfonamide], the 50% effective concentration (EC50) stood at 0.75 µM.
As to `CN(c1c(Cl)cccc1NS(=O)(=O)c1ccc(S(=O)(=O)N(C)C)cc1)C1CCCCC1` [Compound 38, N1-(3-chloro-2-(cyclohexyl(methyl)amino)phenyl)-N4,N4-dimethylbenzene-1,4-disulfonamide], the EC50 stood at 0.24 µM.
For `COCC1(C)CCC(CN(C)c2ccccc2NS(=O)(=O)c2ccc(S(=O)(=O)N(C)C)cc2)CC1` (stereo not shown) [Compound 39, N1-(2-(((4-(methoxymethyl)-4-methylcyclohexyl)methyl)(methyl)amino)phenyl)-N4,N4-dimethylbenzene-1,4-disulfonamide], the EC50 worked out at 0.42 µM.
For `CN(c1ccccc1NS(=O)(=O)c1ccc(S(=O)(=O)N(C)C)cc1)C1CC(F)(F)C1` [Compound 40, N1-(2-((3,3-difluorocyclobutyl) (methyl)amino)phenyl)-N4,N4-dimethylbenzene-1,4-disulfonamide], the concentration for a half-maximal effect (EC50) was determined as 0.41 µM.
Regarding `CN(c1ccccc1NS(=O)(=O)c1ccc(S(=O)(=O)N(C)C)cc1)C1CCC(F)(F)CC1` [Compound 41, N1-(2-((4,4-difluorocyclohexyl) (methyl)amino)phenyl)-N4,N4-dimethylbenzene-1,4-disulfonamide], the EC50 came to 0.27 µM.
As to `COCC1(C)CCC(N(C)c2ccccc2NS(=O)(=O)c2ccc(S(=O)(=O)N(C)C)cc2)CC1` (stereo not shown) [Compound 42, N1-(2-((4-(methoxymethyl)-4-methylcyclohexyl)(methyl)amino)phenyl)-N4,N4-dimethylbenzene-1,4-disulfonamide], the EC50 came to 0.82 µM.
With `CN(Cc1ccc(F)cn1)c1ccccc1NS(=O)(=O)c1ccc(S(=O)(=O)N(C)C)cc1` [Compound 43, N1-(2-(((5-fluoropyridin-2-yl)methyl)(methyl)amino)phenyl)-N4,N4-dimethylbenzene-1,4-disulfonamide] the figure was 0.88 µM.
For the compound `CCn1cnc(CN(C)c2ccccc2NS(=O)(=O)c2ccc(S(=O)(=O)N(C)C)cc2)c1` [Compound 44, N1-(2-(((1-ethyl-1H-imidazol-4-yl)methyl)(methyl)amino)phenyl)-N4,N4-dimethylbenzene-1,4-disulfonamide], the concentration giving a half-maximal response (EC50) is over 10 µM.
On to `CN(Cc1cscn1)c1ccccc1NS(=O)(=O)c1ccc(S(=O)(=O)N(C)C)cc1` [Compound 45, N1,N1-dimethyl-N4-(2-(methyl(thiazol-4-ylmethyl)amino)phenyl)benzene-1,4-disulfonamide], for which the EC50 is 2.06 µM.
Take `CN(Cc1ccccn1)c1ccccc1NS(=O)(=O)c1ccc(S(=O)(=O)N(C)C)cc1` [Compound 46, N1,N1-dimethyl-N4-(2-(methyl(pyridin-2-ylmethyl)amino)phenyl)benzene-1,4-disulfonamide]: the half-maximal effective concentration (EC50) was found to be 2.56 µM.
